The source made the active and inactive calls.
How the values were obtained:
[1] = species on record: Homo sapiens; assay: Cytotoxicity against human HCC1171 cells assessed as reduction in cell viability incubated for 96 hrs by Cell-titer Glo reagent based assay; type: functional
[2] = system: A549; assay: Cytotoxicity against human A549 cells assessed as reduction in cell viability incubated for 96 hrs by Cell-titer Glo reagent based assay; type: functional
[3] = system: HCC44; assay: Cytotoxicity against human HCC44 cells assessed as reduction in cell viability incubated for 96 hrs by Cell-titer Glo reagent based assay; type: functional
[4] = system: Bacillus subtilis; assay: Antibacterial activity against Bacillus subtilis assessed as zones of growth inhibition incubated for 24 hrs by […]; type: functional, organism-based
[5] = system: HCC366; assay: Cytotoxicity against human HCC366 cells assessed as reduction in cell viability incubated for 96 hrs by Cell-titer Glo reagent based assay; type: functional
[6] = system: Pseudomonas aeruginosa; assay: Antibacterial activity against Pseudomonas aeruginosa assessed as zones of growth inhibition incubated for 24 hrs by […]; type: functional, organism-based

C[C@H]1CC[C@@]2(C)C(=O)C=C(NC(=O)c3ccccc3)N12
inactive: Activity [1] | Activity [2] | Activity [3] | growth inhibition (GI) [4] | Activity [5] | growth inhibition (GI) [6]

CC(C)=CC(=O)NC1=CC(=O)[C@]2(C)[C@H](O)[C@@H](O)[C@H](C)N12
inactive: Activity [1] | Activity [2] | Activity [3] | growth inhibition (GI) [4] | Activity [5] | growth inhibition (GI) [6]

CC(C)/C=C/C(=O)NC1=CC(=O)[C@]2(C)CC[C@H](C)N12
inactive: Activity [1] | Activity [2] | Activity [3] | growth inhibition (GI) [4] | Activity [5] | growth inhibition (GI) [6]

CC(C)=Cc1nc(N2C(=O)CC[C@@H]2C)cc(=O)o1
inactive: Activity [1] | Activity [2] | Activity [3] | growth inhibition (GI) [4] | Activity [5] | growth inhibition (GI) [6]

C/C=C(\C)C(=O)NC1=CC(=O)[C@]2(C)CC[C@H](C)N12
inactive: Activity [1] | Activity [2] | Activity [3] | growth inhibition (GI) [4] | Activity [5] | growth inhibition (GI) [6]

CC(C)=Cc1nc(N2C(=O)C[C@H](O)[C@@H]2C)cc(=O)o1
inactive: Activity [1] | Activity [2] | Activity [3] | growth inhibition (GI) [4] | Activity [5] | growth inhibition (GI) [6]

CC(C)=CC(=O)NC1=CC(=O)[C@]2(C)C=C[C@H](C)N12
inactive: Activity [1] | Activity [2] | Activity [3] | growth inhibition (GI) [4] | Activity [5] | growth inhibition (GI) [6]

CC(C)=CC(=O)NC1=CC(=O)[C@@]2(O)CC[C@H](C)N12
inactive: Activity [1] | Activity [2] | Activity [3] | growth inhibition (GI) [4] | Activity [5] | growth inhibition (GI) [6]

From ChEMBL document CHEMBL3817749, “1,3-Oxazin-6-one Derivatives and Bohemamine-Type Pyrrolizidine Alkaloids from a Marine-Derived Streptomyces spinoverrucosus” (J Nat Prod, 2016)
